Data published in patent publication US11168106B1, “Synthesis and stabilization of nicotinamide ribose and its derivatives” (priority 2017, dated 2021).

Columns and labels:
NAD = details: healthy middle-aged and older adults, cited from earlier work
[1] = Decomposition of nicotinamide ribose in water with and without borate, HPTLC read at 254 nm; assay type: physicochemical; details: for Area [%] of assigned substance, decomposition of nicotinamide ribose with borate: boric acid added in 1:1 molar ratio, in water; for Area [%] of assigned substance, decomposition of nicotinamide ribose with borate / Area [%] of assigned substance, decomposition of nicotinamide ribose without borate: water bath 65° C., 8 h, HPTLC at 254 nm; for Area [%] of assigned substance, decomposition of nicotinamide ribose without borate: 1 mg/mL in water
Experimental: Nicotinamide riboside (NR) as its chloride salt was used at 100 mM. Boric acid: was used at 300 mM. All samples were prepared in water. This, 1 mg/mL of nicotinamide riboside of capsule content was weighed in a 25 mL volumetric flask. Water was added to 25 mL total volume. For the reaction in the presence of boric acid, the same was done with boric acid added in a 1:1 molar ratio. In either case, 5 mL of each solution prepared was placed in the water bath at 65° C. A control was incubated at room temperature. After incubation for 8 h, 2 μL of each solution (heated and not heated) are placed on the HPTLC plate. The plate is eluted in the following mobile phase: ethanol, ammonium acetate 1 M (7:3). The plate is read at 254 nm to obtain the respective peaks.

| SMILES | Effect on NAD level (NAD; chronic supplementation) | Tolerability of chronic supplementation (NAD) | Area [%] of assigned substance, decomposition of nicotinamide ribose with borate [1] [%] | Stabilization with respect to decomposition ([1]; boric acid vs no boric acid (FIG. 3 and FIG. 4)) | Area [%] of assigned substance, decomposition of nicotinamide ribose without borate [1] [%] |
| --- | --- | --- | --- | --- | --- |
| NC(=O)c1ccc[n+]([C@@H]2O[C@H](CO)[C@@H](O)[C@H]2O)c1 [Nicotinamide riboside] | elevates NAD | well-tolerated | 86.08 | stabilized by boric acid | 70.1878 |
| NC(=O)c1cccnc1 [Nicotinamide] |  |  | 13.92 |  | 29.8122 |
